Data: patent US20080103141A1, “New compounds” (Biovitrum, priority 2006, published 2008)

molecular target: T1, human GPR119 receptor (Homo sapiens, UniProt Q8TDV5); experiment: Human GPR119 activity assay (cAMP HTRF in HEK293-hGPR119 cells); assay type: cell-based; conditions: stimulation of cAMP in HEK293 cells stably expressing human GPR119, 20 min at room temperature, read-out: Agonist potency at the human GPR119, EC50
T1 construct: expressed in transfected cells
T1 sequence (Q8TDV5 1-335): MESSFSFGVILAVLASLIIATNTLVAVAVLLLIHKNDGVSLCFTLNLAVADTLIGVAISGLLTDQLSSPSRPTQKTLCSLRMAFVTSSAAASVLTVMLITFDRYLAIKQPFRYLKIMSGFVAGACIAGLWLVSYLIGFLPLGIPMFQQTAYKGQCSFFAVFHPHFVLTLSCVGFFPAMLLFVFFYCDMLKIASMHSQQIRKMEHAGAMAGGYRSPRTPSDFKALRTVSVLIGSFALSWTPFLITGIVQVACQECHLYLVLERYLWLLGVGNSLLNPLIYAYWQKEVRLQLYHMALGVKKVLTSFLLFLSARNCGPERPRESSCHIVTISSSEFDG
Method: Human GPR119 Activity Assay
Agonists to the human GPR119 receptor were characterized by measuring human GPR119 receptor-mediated stimulation of cyclic AMP (cAMP) in HEK 293 cells expressing the human GPR119 receptor.
Briefly, cAMP content was determined using a cAMP kit based on HTRF technology (Homogeneous Time-Resolved Fluorescence, Cisbio Cat. no. 62AM2PEC). HEK293 cells stably expressing the human GPR119 receptor (HEK293-hGPR119 cells) were cultured in DMEM (Gibco # 31966-021) supplemented with 10% Bovine Calf Serum (Hyclone # SH30072.03), and, 500 μg/mL Hygromycin B (Roche Diagnostics 843555). At 80% confluency, cells were detached using Trypsine and aliquoted at a density of 5×10^6 cells/mL in freezing medium (DMEM (Gibco # 31966-021), 20% BCS (Hyclone # SH30072.03), 10% DMSO (Sigma #D2650) and stored at −135° C. On the experimental day, HEK293-hGPR119 cells were thawn and diluted to 0.4×10^6 cells/mL in assay buffer (1×HBSS (Gibco Cat. no. 14025-049), 20 mM Hepes (Gibco Cat. no. 15630-056), 0.1% BSA, pH 7.4) and incubated with test substances for 20 min at room temperature. After addition of HTRF reagents diluted in lysis buffer, the 96- or 384-well plates were incubated 1 hour, followed by measuring the fluorescence ratio at 665 nm/620 nm. Test substances was diluted in compound buffer (1×HBSS (Gibco Cat. no. 14025-049), 20 mM Hepes (Gibco Cat. no. 15630-056), 0.1% BSA, 2 mM IBMX (Sigma-Aldrich Cat. No. 17018, pH 7.4). The potency of the agonist was quantified by determine the concentration that cause 50% activation of hGPR119 evoked increase in cAMP, EC50.

EC50 [µM]	Structure (SMILES)
0.014	CC(C)(C)OC(=O)N1CCC(COc2ncc(-c3ccc(S(C)(=O)=O)cc3)cn2)CC1 [EXAMPLE A2, tert-Butyl 4-[({5-[4-(methylsulfonyl)phenyl]pyrimidin-2-yl}oxy)methyl]piperidine-1-carboxylate]
0.453	CC(C)(C)OC(=O)N1CCC(NCc2cnc(-c3ccc(S(C)(=O)=O)cc3)nc2)CC1 [EXAMPLE B1, tert-Butyl 4-[({2-[4-(methylsulfonyl)phenyl]pyrimidin-5-yl}methyl)amino]piperidine-1-carboxylate]

Structure (SMILES)	EC50 [µM]
CC(C)(C)OC(=O)N1CCC(CNc2ncc(-c3ccc(S(C)(=O)=O)cc3)cn2)CC1 [EXAMPLE A22, tert-Butyl 4-[({5-[4-(methylsulfonyl)phenyl]pyrimidin-2-yl}amino)methyl]piperidine-1-carboxylate]	0.055
